Experiment [1] can be described thus: In vitro inhibition of Collagen-induced platelet aggregation in canine platelet rich plasma.
Experiment [2] deals with T1, Integrin alpha-IIb/beta-3 (Homo sapiens, UniProt P05106+P08514). In words: In vitro inhibition of FITC-labeled fibrinogen binding to alphaIIb-beta3 receptor of human platelets.
For experiment [3], the target named is T1, Integrin alpha-IIb/beta-3. Briefly: In vitro binding affinity for FITC-labeled fibrinogen binding to alphaIIb-beta3 receptor of human platelets.

T1 sequence (P05106 27-788 limits assumed): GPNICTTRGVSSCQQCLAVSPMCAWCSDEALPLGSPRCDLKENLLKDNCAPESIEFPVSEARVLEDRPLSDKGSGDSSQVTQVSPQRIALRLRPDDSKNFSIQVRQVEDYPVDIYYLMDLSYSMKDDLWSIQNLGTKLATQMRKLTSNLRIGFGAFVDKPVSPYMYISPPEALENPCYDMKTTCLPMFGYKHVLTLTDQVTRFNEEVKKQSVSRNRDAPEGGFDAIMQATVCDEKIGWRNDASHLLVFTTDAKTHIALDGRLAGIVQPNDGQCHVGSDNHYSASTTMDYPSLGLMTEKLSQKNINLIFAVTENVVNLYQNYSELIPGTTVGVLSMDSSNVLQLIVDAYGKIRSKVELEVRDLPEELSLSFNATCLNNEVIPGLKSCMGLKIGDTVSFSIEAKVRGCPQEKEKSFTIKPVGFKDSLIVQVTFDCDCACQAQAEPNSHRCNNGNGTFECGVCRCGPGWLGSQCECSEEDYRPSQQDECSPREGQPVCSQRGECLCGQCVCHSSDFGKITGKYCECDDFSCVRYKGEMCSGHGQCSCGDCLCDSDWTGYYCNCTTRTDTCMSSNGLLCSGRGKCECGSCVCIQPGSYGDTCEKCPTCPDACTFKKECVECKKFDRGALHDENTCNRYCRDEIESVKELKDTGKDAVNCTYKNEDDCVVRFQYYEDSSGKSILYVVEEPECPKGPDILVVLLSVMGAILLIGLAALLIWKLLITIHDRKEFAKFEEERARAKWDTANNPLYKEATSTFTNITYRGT
T1 sequence (P08514 32-887 limits assumed): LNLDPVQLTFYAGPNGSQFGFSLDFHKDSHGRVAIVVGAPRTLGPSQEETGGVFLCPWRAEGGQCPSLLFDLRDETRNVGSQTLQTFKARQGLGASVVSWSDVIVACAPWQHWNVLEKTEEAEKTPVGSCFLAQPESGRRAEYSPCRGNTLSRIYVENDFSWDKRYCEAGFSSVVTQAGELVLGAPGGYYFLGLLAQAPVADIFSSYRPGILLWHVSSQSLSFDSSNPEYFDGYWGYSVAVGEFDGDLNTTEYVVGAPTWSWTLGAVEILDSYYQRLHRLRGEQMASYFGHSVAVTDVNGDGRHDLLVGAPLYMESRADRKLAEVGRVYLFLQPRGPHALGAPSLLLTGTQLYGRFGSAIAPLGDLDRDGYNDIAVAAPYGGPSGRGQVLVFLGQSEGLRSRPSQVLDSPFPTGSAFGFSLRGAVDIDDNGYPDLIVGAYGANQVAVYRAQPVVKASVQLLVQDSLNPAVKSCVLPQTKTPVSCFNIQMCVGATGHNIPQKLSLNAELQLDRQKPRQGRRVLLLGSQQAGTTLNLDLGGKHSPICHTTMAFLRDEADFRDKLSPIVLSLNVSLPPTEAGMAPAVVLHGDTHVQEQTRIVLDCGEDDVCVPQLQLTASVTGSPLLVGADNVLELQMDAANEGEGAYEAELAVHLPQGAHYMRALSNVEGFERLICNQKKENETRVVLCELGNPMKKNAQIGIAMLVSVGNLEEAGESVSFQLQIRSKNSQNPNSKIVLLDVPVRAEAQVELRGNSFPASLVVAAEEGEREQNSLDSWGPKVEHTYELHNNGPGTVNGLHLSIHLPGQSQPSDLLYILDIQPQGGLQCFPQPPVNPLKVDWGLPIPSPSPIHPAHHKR
T1 sequence (P08514 891-1039 limits assumed): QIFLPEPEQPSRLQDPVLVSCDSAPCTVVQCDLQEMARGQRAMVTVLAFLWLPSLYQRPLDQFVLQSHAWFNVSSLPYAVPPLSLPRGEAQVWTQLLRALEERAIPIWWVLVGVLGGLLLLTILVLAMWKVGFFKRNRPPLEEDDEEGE

As a reminder, the IC50 is the midpoint of a concentration-inhibition curve. High values mean weaker potency, low ones greater potency. Take `N=C(N)c1ccc(NC(=O)CCC(=O)NC(CC(=O)O)c2ccccc2)cc1` (stereo unspecified): the IC50 in experiment [1] turned out to be 290 nM. Same read-out and setting: the figure for `N=C(N)c1ccc(NC(=O)CCC(=O)NCCC(=O)O)cc1` is 1090 nM. A word on the Ki: it is the dissociation constant of the complex between target and ligand, obtained from inhibition or displacement. A lower Ki goes with tighter binding. In experiment [2], `O=C(O)CC(NC(=O)CCC(=O)Nc1ccc2c(c1)CNC2)c1ccccc1` (stereo unspecified) displayed an IC50 of 8.3 nM. In addition, affinity in experiment [3] was put at a Ki of 4.2 nM. Regarding `O=C(O)CCNC(=O)CCC(=O)Nc1ccc2c(c1)CNC2`, the IC50 in experiment [2] turned out to be 10 nM. The molecule further displayed a Ki in experiment [3] of 7.1 nM.

For the origin of these results see ChEMBL document CHEMBL1138020, “Novel fibrinogen receptor antagonists. RGDF mimetics, derivatives of 4-(isoindoline-5-yl)amino-4-oxobutyric acid” (Bioorg Med Chem Lett, 2004).
